Test results from patent US20240148821A1, “PHARMACEUTICAL USE OF CYCLIC PEPTIDE COMPOUND” (CHUGAI SEIYAKU KABUSHIKI KAISHA, priority 2021, published 2024).
Numbered stars: 1 amine (or outer) side, 2 acyl side, 3 side chain; on linkers, the order of the positions; unused ones are H or OH. Bridge positions count the residues as written; N and C are the ends. Square brackets hold non-standard residues; d marks the D form. Peptide text beside a SMILES is read from it. * marks the point of attachment. hPhe(3-Cl-4-CF3) = N[C@@H](CCc1ccc(C(F)(F)F)c(Cl)c1)C(=O)O; hPhe(4-CF3) = N[C@@H](CCc1ccc(C(F)(F)F)cc1)C(=O)O; NMePhe(4-Cl) = CN[C@@H](Cc1ccc(Cl)cc1)C(=O)O; NMedβ3hAla = C[C@H](CC(=O)[*:2])N(C)[*:1]; NMeGly(cPent) = CN[C@H](C(=O)O)C1CCCC1; Phe(3-I) = N[C@@H](Cc1cccc(I)c1)C(=O)O; NMeY = CN[C@@H](Cc1ccc(O)cc1)C(=O)O; NMeCha = CN[C@@H](CC1CCCCC1)C(=O)O; NEtLeu = CCN[C@@H](CC(C)C)C(=O)O; NMeF = CN[C@@H](Cc1ccccc1)C(=O)O; NMeE = CN[C@@H](CCC(=O)O)C(=O)O; NMeD = CN[C@@H](CC(=O)O)C(=O)O; NMeL = CN[C@@H](CC(C)C)C(=O)O; NMeNva = CCC[C@H](NC)C(=O)O; NMeV = CN[C@H](C(=O)O)C(C)C; d(β3hA) = C[C@@H](N)CC(=O)O; NMeS = CN[C@@H](CO)C(=O)O; NMeA = CN[C@@H](C)C(=O)O; Nle = CCCC[C@H](N)C(=O)O; Piperidide = C1CCN(*)CC1; dNMeA = CN[C@H](C)C(=O)O; Ac5c = NC1(C(=O)O)CCCC1; Aze = O=C(O)[C@@H]1CCN1; Cyclopropyl = C1CC1*; Sar = CNCC(=O)O; Propyl = CCC*

target: protein-protein interaction between Kras and SOS1 (biotin-tagged human Kras loaded with GDP, His-tagged human SOS1) (Homo sapiens (Human), UniProt P01116, G12D); assay: Protein-protein interaction inhibition between Kras and SOS1 (KrasG12D-SOS PPI) using AlphaScreen; assay type: biochemical; conditions: AlphaScreen; biotin-tagged human Kras loaded with GDP, His-tagged human SOS1; read-out: KRAS G12D-SOS PPI IC50;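 note: kras produced in E. coli, Ni-coupled donor beads and streptavidin acceptor beads, excitation 680 nm with emission detected at 520–620 nm via singlet oxygen transfer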

In order of falling IC50:
1. CC[C@H](C)[C@@H]1NC(=O)[C@H](CC2CCCCC2)N(C)C(=O)C[C@@H](C)NC(=O)[C@H](CC(C)C)N(C)C(=O)C2(CCCC2)NC(=O)[C@H](CC(C)C)N(C)C(=O)[C@H](CCc2ccc(C(F)(F)F)cc2)NC(=O)CN(C)C(=O)[C@H](Cc2ccc(Cl)cc2)N(C)C(=O)CN(C)C(=O)CN(C)C1=O [Compound 583] (cyclo([Ac5c][NMeL][d(β3hA)][NMeCha]I[Sar][Sar][NMePhe(4-Cl)][Sar][hPhe(4-CF3)][NMeL]))  370 nM
2. CCCOC[C@H]1C(=O)N2CC[C@H]2C(=O)N(C)[C@@H](CC2CCCCC2)C(=O)N(C)[C@H](C)C(=O)N[C@@H](CCc2ccc(C(F)(F)F)c(Cl)c2)C(=O)N2CCC[C@H]2C(=O)NC2(CCCC2)C(=O)N(C)[C@@H](C(C)C)C(=O)N[C@H](C)CC(=O)N(C)[C@@H](C)C(=O)N[C@@H]([C@@H](C)CC)C(=O)N1C [Compound 2016] (cyclo([Ac5c][NMeV][d(β3hA)][NMeA]I[NMeS](Propyl)[Aze][NMeCha][dNMeA][hPhe(3-Cl-4-CF3)]P))  270 nM
3. CCCOC[C@H]1C(=O)N2CC[C@H]2C(=O)N(C)[C@@H](CC2CCCCC2)C(=O)N(C)CC(=O)N[C@@H](CCc2ccc(C(F)(F)F)c(Cl)c2)C(=O)N2CCC[C@H]2C(=O)NC2(CCCC2)C(=O)N(C)[C@@H](C(C)C)C(=O)N[C@H](C)CC(=O)N(C)[C@@H](CC(C)C)C(=O)N[C@@H]([C@@H](C)CC)C(=O)N1C [Compound 852] (cyclo([Ac5c][NMeV][d(β3hA)][NMeL]I[NMeS](Propyl)[Aze][NMeCha][Sar][hPhe(3-Cl-4-CF3)]P))  190 nM
4. CC[C@H](C)[C@@H]1NC(=O)[C@H](CC(C)C)N(C)C(=O)C[C@@H](C)NC(=O)[C@H](C(C)C)N(C)C(=O)C2(CCCC2)NC(=O)[C@@H]2CCCN2C(=O)[C@H](CCc2ccc(C(F)(F)F)c(Cl)c2)NC(=O)CN(C)C(=O)[C@H](CC2CCCCC2)N(C)C(=O)[C@@H]2CCN2C(=O)[C@H](COC2CC2)N(C)C1=O [Compound 1102] (cyclo([Ac5c][NMeV][d(β3hA)][NMeL]I[NMeS](Cyclopropyl)[Aze][NMeCha][Sar][hPhe(3-Cl-4-CF3)]P))  160 nM
5. CC[C@H](C)[C@@H]1NC(=O)[C@H](C)N(C)C(=O)C[C@@H](C)NC(=O)[C@H](C(C)C)N(C)C(=O)C2(CCCC2)NC(=O)[C@@H]2CCCN2C(=O)[C@H](CCc2ccc(C(F)(F)F)c(Cl)c2)NC(=O)[C@@H](C)N(C)C(=O)[C@H](Cc2ccccc2)N(C)C(=O)[C@@H]2CCCN2C(=O)CN(C)C1=O [Compound 1783] (cyclo([Ac5c][NMeV][d(β3hA)][NMeA]I[Sar]P[NMeF][dNMeA][hPhe(3-Cl-4-CF3)]P))  52 nM
6. CCCC[C@@H]1NC(=O)[C@H](Cc2cccc(I)c2)NC(=O)CN(C)C(=O)[C@H](Cc2ccc(OC)cc2)N(C)C(=O)[C@@H]2CCN2C(=O)[C@H](C)N(C)C(=O)[C@H]([C@@H](C)CC)NC(=O)[C@H](CC(C)C)N(C)C(=O)C[C@@H](C(=O)N2CCCCC2)N(C)C(=O)[C@H](CC(C)C)NC(=O)[C@H](CCC(=O)N(C)C)N(C)C1=O [Compound 2110, 3-[(3S,6S,9S,13S,16S,19S,22S,25S,31S,34S)-22-butyl-25-[(3-iodophenyl)methyl]-9,16-diisobutyl-31-[(4-methoxyphenyl)methyl]-3,4,10,14,20,29,32-heptamethyl-6-[(1S)-1-methylpropyl]-2,5,8,11,15,18,21,24,27,30,33-undecaoxo-13-(piperidine-1-carbonyl)-1,4,7,10,14,17,20,23,26,29,32-undecazabicyclo[32.2.0]hexatriacontan-19-yl]-N,N-dimethyl-propanamide] ([NMeL]I[NMeA][Aze][NMeY](Me)[Sar][Phe(3-I)][Nle][NMeE](NMe2)L[NMeD]-Piperidide; lactam N-11)  9.8 nM
7. CCC[C@H]1C(=O)N(C)[C@H](C(=O)N2CCCCC2)CC(=O)N(C)[C@@H](CC(C)C)C(=O)N[C@@H]([C@@H](C)CC)C(=O)N(C)[C@@H](C)C(=O)N2CC[C@H]2C(=O)N(C)[C@@H](CC2CCCCC2)C(=O)N(C)CC(=O)N[C@@H](CCc2ccc(C(F)(F)F)c(Cl)c2)C(=O)N2CCC[C@H]2C(=O)NC2(CCCC2)C(=O)N1C [Compound 995] ([NMeL]I[NMeA][Aze][NMeCha][Sar][hPhe(3-Cl-4-CF3)]P[Ac5c][NMeNva][NMeD]-Piperidide; lactam N-11)  5.7 nM
8. CC[C@H](C)[C@@H]1NC(=O)[C@H](CC(C)C)N(CC)C(=O)C[C@@H](C(=O)N2CCCCC2)N(C)C(=O)[C@H](C(C)C)N(C)C(=O)C2(CCCC2)NC(=O)[C@@H]2CCCN2C(=O)[C@H](CCc2ccc(C(F)(F)F)c(Cl)c2)NC(=O)CN(C)C(=O)[C@H](CC2CCCCC2)N(C)C(=O)[C@@H]2CCN2C(=O)[C@H](C)N(C)C1=O [Compound 667] ([NEtLeu]I[NMeA][Aze][NMeCha][Sar][hPhe(3-Cl-4-CF3)]P[Ac5c][NMeV][NMeD]-Piperidide; lactam N-11)  5.1 nM
9. CCCOC[C@H]1C(=O)N(C)CC(=O)N[C@@H](CCc2ccc(C(F)(F)F)c(Cl)c2)C(=O)N2CCC[C@H]2C(=O)NC2(CCCC2)C(=O)N(C)[C@@H](C2CCCC2)C(=O)N(C)[C@H](C)CC(=O)N(C)[C@@H](CC(C)C)C(=O)N[C@@H]([C@@H](C)CC)C(=O)N(C)[C@@H](C)C(=O)N2CC[C@H]2C(=O)N1C [Compound 366] (cyclo([Ac5c][NMeGly(cPent)][NMedβ3hAla][NMeL]I[NMeA][Aze][NMeS](Propyl)[Sar][hPhe(3-Cl-4-CF3)]P))  4 nM
